Reference: patent US12558428B2, “Heterobifunctional compounds and their use in treating disease” (Halda Therapeutics OpCo, Inc., priority 2024, dated 2026)
Where two headings read alike, the source gives them in different places.

How the values were obtained:
Assay type in all cases: cell-based
[1] = tested on: T-Rex 293 cells having increased expression of estrogen receptor alpha protein; assay: Cellular growth inhibition assay, T-Rex 293 cells, (+) doxycycline; conditions: Table 7-A, T-Rex 293 cells with doxycycline (increased ERα expression), 72 hours, CellTiter-Glo, read-out: (+) Dox GI50
Method in brief: (§1)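 Viability read-out was CellTiter-Glo 2.0 luminescence after 72 h compound exposure, normalized to zero luminescence and fitted by four-parameter regression to give GI50. Cells were an ERα-inducible T-Rex 293 clone cultured with or without 3 ng/mL doxycycline in charcoal-stripped, phenol red-free medium.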

[2] = tested on: T-Rex 293 cells lacking increased expression of estrogen receptor alpha protein; assay: Cellular growth inhibition assay, T-Rex 293 cells, (−) doxycycline; conditions: Table 7-A, T-Rex 293 cells without doxycycline (lacking increased ERα expression), 72 hours, CellTiter-Glo, read-out: (−) Dox GI50
Method in brief: as §1

[3] = tested on: MCF7 cells (ATCC #HTB-22); assay: Cellular growth inhibition assay, MCF7 cells purchased from ATCC; conditions: Table 8-A, MCF7 cells purchased from ATCC, six days, CellTiter-Glo, read-out: GI50
Method in brief: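 MCF7 cells in RPMI 1640 with 10% FBS and 0.2 U/ml insulin, seeded at 1,500 cells/well (ATCC) or 225 cells/well (ECACC). Compounds added 24 h later, then 6 days at 37° C. Viability by CellTiter-Glo 2.0 luminescence. GI50 from four-parameter fit.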

SMILES | GI50 ([1]; T-REx-293, 72 h) [µM] | GI50 ([2]; T-REx-293, 72 h) [µM] | GI50 ([3]; Homo sapiens, MCF7, 144 h) [µM] | GI50 [1] [µM] | GI50 [2] [µM] | GI50 [3] [µM]
Cc1sc2c(c1C)C(c1ccc(N3CCC(O)(CN4CCN(c5cc(F)c([C@@H]6c7ccc(O)cc7CC[C@@H]6c6ccccc6)c(F)c5)CC4)CC3)cc1)=N[C@@H](Cc1ncco1)c1nnc(C)n1-2 [III-196] | < 0.05 | 0.05 to 0.5 | < 0.05 |  |  | 
Cc1sc2c(c1C)C(c1ccc(N3CCC(O)(CN4CCN(c5cc(F)c([C@@H]6c7ccc(O)cc7CC[C@@H]6c6ccccc6)c(F)c5)CC4)CC3)cc1)=N[C@H](Cc1ncco1)c1nnc(C)n1-2 [III-197] | < 0.05 | 0.05 to 0.5 | 0.05 to 0.5 |  |  | 
Cc1sc2c(c1C)C(c1ccc(N3CCC(O)(CN4CCN(c5ccc([C@H]6c7ccc(C(=O)O)cc7CC[C@H]6c6ccccc6)cc5)CC4)CC3)cc1)=N[C@H](Cc1ncco1)c1nnc(C)n1-2 [III-198] | > 2.5 | > 2.5 | > 2.5 |  |  | 
Cc1sc2c(c1C)C(c1ccc(N3CCC(O)(CN4CCN(c5ccc([C@H]6c7ccc(C(=O)O)cc7CC[C@H]6c6ccccc6)cc5)CC4)CC3)cc1)=N[C@@H](Cc1ncco1)c1nnc(C)n1-2 [III-199] | > 2.5 | > 2.5 | > 2.5 |  |  | 
Cc1sc2c(c1C)C(c1ccc(N3CCC(O)(CN4CCN(c5ccc([C@@H]6c7ccc(C(=O)O)cc7CC[C@@H]6c6ccccc6)cc5)CC4)CC3)cc1)=N[C@@H](Cc1ncco1)c1nnc(C)n1-2 [III-200] | < 0.05 | 0.05 to 0.5 | < 0.05 |  |  | 
Cc1sc2c(c1C)C(c1ccc(N3CCC(O)(CN4CCN(c5ccc([C@@H]6c7ccc(C(=O)O)cc7CC[C@@H]6c6ccccc6)cc5)CC4)CC3)cc1)=N[C@H](Cc1ncco1)c1nnc(C)n1-2 [III-201] | 0.05 to 0.5 | 0.05 to 0.5 | 0.05 to 0.5 |  |  | 
Cc1sc2c(c1C)C(c1ccc(N3CCC4(CCN(CC5CCN(c6ccc([C@@H]7c8ccc(O)cc8CC[C@@H]7c7ccccc7)cc6)CC5)CC4)C3)cc1)=N[C@@H](Cc1ncco1)c1nnc(C)n1-2 [III-202] | < 0.05 | 0.05 to 0.5 | < 0.05 |  |  | 
Cc1sc2c(c1C)C(c1ccc(N3CC(CC4(F)CCN(CC5CN(c6ccc([C@@H]7c8ccc(O)cc8CC[C@@H]7c7ccccc7)cc6)C5)CC4)C3)cc1)=N[C@@H](C)c1nnc(C)n1-2 [III-203] | < 0.05 | 0.5 to 2.5 | < 0.05 |  |  | 
Cc1sc2c(c1C)C(c1ccc(N3CCC(O)(CN4CCN(c5ccc([C@@H]6c7ccc(C(=O)O)cc7CC[C@@H]6c6ccc(F)cc6F)cc5)CC4)CC3)cc1)=N[C@@H](C)c1nnc(C)n1-2 [III-204] | < 0.05 | 0.5 to 2.5 | 0.05 to 0.5 |  |  | 
Cc1sc2c(c1C)C(c1ccc(N3CCC(O)(CN4CCN(c5ccc([C@H]6c7ccc(C(=O)O)cc7CC[C@H]6c6ccc(F)cc6F)cc5)CC4)CC3)cc1)=N[C@@H](C)c1nnc(C)n1-2 [III-205] | 0.05 to 0.5 | 0.5 to 2.5 | 0.05 to 0.5 |  |  | 
Cc1sc2c(c1C)C(c1ccc(N3CC4(CCC(O)(CN5CCC(c6ccc([C@@H]7c8ccc(O)cc8CC[C@@H]7c7ccccc7)cc6)CC5)CC4)C3)cc1)=N[C@@H](C)c1nnc(C)n1-2 [III-206] | < 0.05 | 0.5 to 2.5 | < 0.05 |  |  | 
Cc1sc2c(c1C)C(c1ccc(N3CCC(O)(CN4CCN(c5ccc([C@H]6c7ccc(O)cc7CC[C@H]6c6ccc(F)cc6)cc5)CC4)CC3)cc1)=N[C@H](Cc1ncco1)c1nnc(C)n1-2 [III-207] | > 2.5 | > 2.5 | 0.5 to 2.5 |  |  | 
Cc1sc2c(c1C)C(c1ccc(N3CCC(O)(CN4CCN(c5ccc([C@@H]6c7ccc(O)cc7CC[C@@H]6c6ccc(F)cc6)cc5)CC4)CC3)cc1)=N[C@H](Cc1ncco1)c1nnc(C)n1-2 [III-208] | > 2.5 | > 2.5 | 0.5 to 2.5 |  |  | 
Cc1sc2c(c1C)C(c1ccc(N3CCC(O)(CN4CCN(c5ccc([C@H]6c7ccc(O)cc7CC[C@H]6c6ccc(F)cc6)cc5)CC4)CC3)cc1)=N[C@@H](Cc1ncco1)c1nnc(C)n1-2 [III-209] | < 0.05 | 0.05 to 0.5 | 0.05 to 0.5 |  |  | 
Cc1sc2c(c1C)C(c1ccc(N3CCC(O)(CN4CCN(c5ccc([C@@H]6c7ccc(O)cc7CC[C@@H]6c6ccc(F)cc6)cc5)CC4)CC3)cc1)=N[C@@H](Cc1ncco1)c1nnc(C)n1-2 [III-210] | < 0.05 | 0.05 to 0.5 | < 0.05 |  |  | 
Cc1sc2c(c1C)C(c1ccc(N3CC4(CCC(O)(CN5CCC(c6ccc([C@@H]7c8ccc(O)cc8CC[C@@H]7c7ccccc7)cc6)CC5)CC4)C3)cc1)=N[C@@H](Cc1ncco1)c1nnc(C)n1-2 [III-211] | < 0.05 | 0.05 to 0.5 | < 0.05 |  |  | 

SMILES | GI50 ([1]; T-REx-293, 72 h) [µM] | GI50 ([2]; T-REx-293, 72 h) [µM] | GI50 ([3]; Homo sapiens, MCF7, 144 h) [µM] | GI50 [1] [µM] | GI50 [2] [µM] | GI50 [3] [µM]
Cc1sc2c(c1C)C(c1ccc(N3CC(CN4CCC(F)(CC5CN(c6ccc([C@@H]7c8ccc(O)cc8CC[C@@H]7c7ccccc7)cc6)C5)CC4)C3)cc1)=N[C@@H](C)c1nnc(C)n1-2 [III-212] | < 0.05 | 0.05 to 0.5 | < 0.05 |  |  | 
Cc1sc2c(c1C)C(c1ccc(N3CCC(O)(CN4CCN(c5ccc([C@H]6c7ccc(C(=O)O)cc7CC[C@H]6c6ccc(F)cc6F)cc5)CC4)CC3)cc1)=NC(Cc1ncco1)c1nnc(C)n1-2 (stereo partly drawn) [III-213] | > 2.5 | > 2.5 | > 2.5 |  |  | 
Cc1sc2c(c1C)C(c1ccc(N3CCC(O)(CN4CCN(c5ccc([C@@H]6c7ccc(C(=O)O)cc7CC[C@@H]6c6ccc(F)cc6F)cc5)CC4)CC3)cc1)=NC(Cc1ncco1)c1nnc(C)n1-2 (stereo partly drawn) [III-214] | < 0.05 | 0.05 to 0.5 | < 0.05 |  |  | 
Cc1sc2c(c1C)C(c1ccc(N3CCN(CC4CCN(c5ccc([C@@H]6c7ccc(O)cc7CC[C@@H]6c6ccccc6)cc5)CC4)CC3)cc1)=N[C@@H](Cn1cccn1)c1nnc(C)n1-2 [III-215] | < 0.05 | > 2.5 | < 0.05 |  |  | 
Cc1sc2c(c1C)C(c1ccc(N3CCN(CC4CCN(c5ccc([C@@H]6c7ccc(O)cc7CC[C@@H]6c6ccccc6)cc5)CC4)CC3)cc1)=N[C@H](Cn1cccn1)c1nnc(C)n1-2 [III-216] | > 2.5 | > 2.5 | 0.05 to 0.5 |  |  | 
Cc1sc2c(c1C)C(c1ccc(N3CCC(O)(CN4CCN(c5ccc([C@@H]6c7ccc(O)cc7CC[C@@H]6c6ccccc6)nn5)CC4)CC3)cc1)=N[C@@H](C)c1nnc(C)n1-2 [III-217] | < 0.05 | 0.05 to 0.5 | 0.05 to 0.5 |  |  | 
Cc1sc2c(c1C)C(c1ccc(N3CCC(O)(CN4CCN(c5ccc([C@H]6c7ccc(O)cc7CC[C@H]6c6ccccc6)nn5)CC4)CC3)cc1)=N[C@@H](C)c1nnc(C)n1-2 [III-218] | < 0.05 | 0.05 to 0.5 | 0.05 to 0.5 |  |  | 
Cc1sc2c(c1C)C(c1ccc(N3CC(CN4CC(CN5CC(c6ccc([C@@H]7c8ccc(O)cc8CC[C@@H]7c7ccccc7)cc6)C5)C4)C3)cc1)=N[C@@H](C)c1nnc(C)n1-2 [III-219] | < 0.05 | 0.05 to 0.5 | 0.05 to 0.5 |  |  | 
Cc1sc2c(c1C)C(c1ccc(N3CC(CN4CC(CC5CN(c6ccc([C@@H]7c8ccc(O)cc8CC[C@@H]7c7ccccc7)cc6)C5)C4)C3)cc1)=N[C@@H](C)c1nnc(C)n1-2 [III-220] | < 0.05 | 0.05 to 0.5 | 0.05 to 0.5 |  |  | 
Cc1sc2c(c1C)C(c1ccc(N3CC(CN4CC(CC5CN(c6ccc([C@@H]7c8ccc(O)cc8CC[C@@H]7c7ccccc7)cc6)C5)C4)C3)cc1)=N[C@@H](C)c1nnc(C)n1-2 [III-221] |  |  |  | < 0.05 | 0.05 to 0.5 | < 0.05
Cc1sc2c(c1C)C(c1ccc(N3CC4(CCC(F)(CN5CCC(c6ccc([C@@H]7c8ccc(O)cc8CC[C@@H]7c7ccccc7)cc6)CC5)CC4)C3)cc1)=N[C@@H](C)c1nnc(C)n1-2 [III-222] | < 0.05 | > 2.5 | 0.05 to 0.5 |  |  | 
Cc1sc2c(c1C)C(c1ccc(N3CCC(O)(CN4CCN(c5ccc([C@@H]6c7ccc(O)cc7CC[C@@H]6c6ccccc6)nn5)CC4)CC3)cc1)=N[C@H](Cc1ncco1)c1nnc(C)n1-2 [III-223] | 0.5 to 2.5 | 0.5 to 2.5 | 0.5 to 2.5 |  |  | 
Cc1sc2c(c1C)C(c1ccc(N3CCC(O)(CN4CCN(c5ccc([C@H]6c7ccc(O)cc7CC[C@H]6c6ccccc6)nn5)CC4)CC3)cc1)=N[C@H](Cc1ncco1)c1nnc(C)n1-2 [III-224] | > 2.5 | > 2.5 | 0.05 to 0.5 |  |  | 
Cc1sc2c(c1C)C(c1ccc(N3CCC(O)(CN4CCN(c5ccc([C@H]6c7ccc(O)cc7CC[C@H]6c6ccccc6)nn5)CC4)CC3)cc1)=N[C@@H](Cc1ncco1)c1nnc(C)n1-2 [III-225] | < 0.05 | 0.05 to 0.5 | 0.05 to 0.5 |  |  | 
Cc1sc2c(c1C)C(c1ccc(N3CCC(O)(CN4CCN(c5ccc([C@@H]6c7ccc(O)cc7CC[C@@H]6c6ccccc6)nn5)CC4)CC3)cc1)=N[C@@H](Cc1ncco1)c1nnc(C)n1-2 [III-226] | < 0.05 | 0.05 to 0.5 | < 0.05 |  |  | 
Cc1sc2c(c1C)C(c1ccc(N3CC4(CCC(F)(CN5CCC(c6ccc([C@@H]7c8ccc(O)cc8CC[C@@H]7c7ccccc7)cc6)CC5)CC4)C3)cc1)=N[C@@H](Cc1ncco1)c1nnc(C)n1-2 [III-227] | < 0.05 | > 2.5 | 0.05 to 0.5 |  |  | 
